Tests used:
[1] = Retention time of the compound by HPLC analysis; type: physicochemical
[2] = system: Human immunodeficiency virus 2; test: Antiviral activity against HIV-2 ROD infected in human MT4 cells assessed as protection from virus-induced cytopathicity after 4 days by MTT assay; type: functional, organism-based; conditions: Human immunodeficiency virus 2, ISOLATE ROD, MT4, 96 h
[3] = system: Human immunodeficiency virus 1; test: Antiviral activity against wild type HIV1 3B infected in human MT4 cells assessed as protection from virus-induced cytopathicity after 4 days by MTT assay; type: functional, organism-based; conditions: Human immunodeficiency virus 1, 3B, MT4, 96 h
[4] = Cytotoxicity against human MT4 cells assessed as reduction of cell viability after 4 days by MTT assay; type: cell-based
[5] = system: Human immunodeficiency virus 1; test: Antiviral activity against HIV-1 RES056 harboring reverse transcriptase K103N/Y181C double mutant infected in human MT4 cells assessed as protection from virus-induced cytopathicity after 4 days by MTT assay; type: functional, organism-based; conditions: Human immunodeficiency virus 1, RES056, MT4, 96 h
[6] = Selectivity index, ratio of CC50 for human MT4 cells to EC50 for HIV1 3B infected in human MT4 cells; type: toxicity, cell-based; conditions: HIV1 3B infected MT4 cells, read-out: Selectivity Index
[7] = target: Human immunodeficiency virus type 1 reverse transcriptase (Human immunodeficiency virus 1, UniProt Q72547); test: Inhibition of HIV1 recombinant wild type reverse transcriptase p66/p51 assessed as reduction in biotin-labeled dUTP incorporation into DNA using polyr(A) x oligo(dT)16 template/primer hybrid

Row | SMILES | Retention_time [1] [min] | EC50 [2] [nM] | EC50 [3] [nM] | CC50 at 96 h [4] [nM] | EC50 [5] [nM] | selectivity ratio [6] | IC50 [7] [nM]
1 | Cc1ccc(NC(=O)CN2CCC(Nc3nccc(Oc4c(C)cc(C#N)cc4C)n3)CC2)cc1 | 11.29 | > 2020 | 5.5 | 2020 | > 2020 | 367 | 181
2 | Cc1cc(C#N)cc(C)c1Oc1nc(Nc2ccc(C#N)cc2)nc(N)c1Br [ETRAVIRINE] | – | – | – | > 4600 | 25.3 | > 1120 | –
3 | Cc1cc(C#N)cc(C)c1Oc1ccnc(NC2CCN(CC(=O)Nc3ccc(C#N)cc3)CC2)n1 | 10.72 | > 602 | 2.9 | 602 | > 602 | 208 | –
4 | Cc1cc(C#N)cc(C)c1Oc1ccnc(NC2CCN(CC(=O)Nc3ccccc3[N+](=O)[O-])CC2)n1 | 11.75 | > 59300 | 41.9 | 59300 | > 59300 | 1420 | 193
5 | Cc1cc(S(N)(=O)=O)ccc1NC(=O)CN1CCC(Nc2nccc(Oc3c(C)cc(C#N)cc3C)n2)CC1 | 9.61 | > 1640 | 5.3 | 1640 | > 1640 | 309 | 166
6 | Cc1cc(C#N)cc(C)c1Oc1ccnc(NC2CCN(CC(=O)Nc3ccc(C#N)cc3F)CC2)n1 | 11.27 | > 1960 | 8 | 1960 | > 1960 | 245 | 174
7 | Cc1cc(C#N)cc(C)c1Oc1ccnc(NC2CCN(CC(=O)Nc3ccc(F)cc3)CC2)n1 | 10.85 | > 1810 | 4.2 | 1810 | > 1810 | 431 | 204
8 | Cc1cc(C#N)cc(C)c1Oc1ccnc(NC2CCN(CC(=O)Nc3ccccc3F)CC2)n1 | 11.43 | > 119000 | 7 | 119000 | > 119000 | 16900 | 207
9 | Cc1cc(C#N)cc(C)c1Oc1ccnc(NC2CCN(CC(=O)Nc3ccc([N+](=O)[O-])cc3)CC2)n1 | 11.13 | > 518 | 5.8 | 518 | > 518 | 89 | 136
10 | Cc1cc(C#N)cc(C)c1Oc1ccnc(NC2CCN(CC(=O)Nc3cccc(F)c3)CC2)n1 | 11.41 | > 1410 | 6.1 | 1410 | > 1410 | 231 | –
11 | Cc1cc(C)cc(NC(=O)CN2CCC(Nc3nccc(Oc4c(C)cc(C#N)cc4C)n3)CC2)c1 | 12.18 | > 2310 | 14.9 | 2310 | > 2310 | 155 | –
12 | Cc1cc(C#N)cc(C)c1Oc1ccnc(NC2CCN(CC(=O)Nc3ccc(Cl)cc3)CC2)n1 | 11.62 | > 998 | 6.1 | 998 | > 998 | 164 | –
13 | Cc1cc(C#N)cc(C)c1Oc1ccnc(NC2CCN(CC(=O)Nc3ccc(Br)cc3)CC2)n1 | 11.85 | > 1480 | 6.2 | 1480 | > 1480 | 238 | –
14 | Cc1cc(C#N)cc(C)c1Oc1ccnc(NC2CCN(CC(=O)Nc3ccc(Cl)cc3Cl)CC2)n1 | 13.21 | > 1750 | 118 | 1750 | > 1750 | 15 | –
15 | Cc1cc(C#N)cc(C)c1Oc1ccnc(NC2CCN(CC(=O)Nc3cccc([N+](=O)[O-])c3)CC2)n1 | 11.49 | > 379 | 7.8 | ≥ 379 | > 379 | ≥ 49 | 156
16 | Cc1cc(C#N)cc(C)c1Oc1ccnc(NC2CCN(CC(=O)Nc3ccc(O)cc3)CC2)n1 | 10.25 | > 2180 | 2.1 | 2180 | > 2180 | 1040 | 102
17 | Cc1cccc(NC(=O)CN2CCC(Nc3nccc(Oc4c(C)cc(C#N)cc4C)n3)CC2)c1 | 11.43 | > 1680 | 6.6 | 1680 | > 1680 | 254 | –
18 | Cc1ccc(NC(=O)CN2CCC(Nc3nccc(Oc4c(C)cc(C#N)cc4C)n3)CC2)cc1C | 12.21 | > 1510 | 8.5 | 1510 | > 1510 | 177 | –
19 | O=C1Nc2ccc(Cl)cc2[C@@](C#CC2CC2)(C(F)(F)F)O1 [EFAVIRENZ] | – | – | 6.3 | > 6340 | – | – | –
20 | CC(C)Nc1cccnc1N1CCN(C(=O)c2cc3cc(NS(C)(=O)=O)ccc3[nH]2)CC1 [DELAVIRDINE] | – | – | – | > 43800 | > 43800 | > 67 | –
21 | COc1ccc(NC(=O)CN2CCC(Nc3nccc(Oc4c(C)cc(C#N)cc4C)n3)CC2)cc1 | 10.82 | > 1560 | 3.5 | 1560 | > 1560 | 446 | –
22 | Cc1cc(C#N)cc(C)c1Oc1ccnc(NC2CCN(CC(=O)Nc3ccc(Cl)c(Cl)c3)CC2)n1 | 12.62 | > 1280 | 20.9 | 1280 | > 1280 | 61 | –
23 | Cc1cc(C#N)cc(C)c1Oc1ccnc(NC2CCN(CC(=O)Nc3cccc(Cl)c3)CC2)n1 | 11.95 | > 1260 | 5.9 | 1260 | > 1260 | 214 | –
24 | Cc1cc(C#N)cc(C)c1Oc1ccnc(NC2CCN(CC(=O)Nc3ccccc3Cl)CC2)n1 | 12.14 | > 1510 | 34.6 | 1510 | > 1510 | 44 | –
25 | Cc1cc(C#N)cc(C)c1Oc1ccnc(NC2CCN(CC(=O)Nc3ccccc3)CC2)n1 | 10.9 | > 1820 | 3.3 | 1820 | > 1820 | 551 | 199
26 | Cc1cc(C#N)cc(C)c1Oc1ccnc(NC2CCN(CC(=O)Nc3cc(Cl)cc(Cl)c3)CC2)n1 | 13.08 | > 3520 | 76.1 | 3520 | > 3520 | 46 | –
27 | Cc1ccccc1NC(=O)CN1CCC(Nc2nccc(Oc3c(C)cc(C#N)cc3C)n2)CC1 | 11.33 | > 1250 | 61.6 | 1250 | > 1250 | 20 | –
28 | Cc1cc(C#N)cc(C)c1Oc1ccnc(NC2CCN(CC(=O)Nc3ccc(S(N)(=O)=O)cc3)CC2)n1 | 9.11 | > 1610 | 1.9 | 1610 | > 1610 | 845 | 116
29 | Cc1cc(C#N)cc(C)c1Oc1ccnc(NC2CCN(CC(=O)Nc3c(Cl)cc(Cl)cc3Cl)CC2)n1 | 11.85 | > 1500 | ≥ 304 | 1500 | > 1500 | ≤ 5 | –
